Among the data in patent publication US8735398B2 (Bristol-Myers Squibb Company, priority 2009, dated 2014) are EC50 values, retold here.

Read-outs that look alike come from different tables or passages of the source. Some results are limits rather than exact numbers.

This experiment deals with HCV 1b genotype. Nature of the experiment: HCV replicon assay (HCV-neo replicon cells, wild-type). The experiment is classed as cell-based, Hepatitis C virus. Particulars: HCV 1b genotype replicon. Here is the method: An HCV Replicon assay was utilized in the present disclosure, and was prepared, conducted and validated as described in commonly owned PCT/US2006/022197 and in O'Boyle et al., Antimicrob. Agents Chemother, 49(4):1346-1353 (April 2005). Assay methods incorporating luciferase reporters have also been used as described (Apath.com).
HCV-neo replicon cells and replicon cells containing resistance substitutions in the NS5A region were used to test the currently described family of compounds.
The compounds were determined to have differing degrees of reduced inhibitory activity on cells containing mutations vs. the corresponding inhibitory potency against wild-type cells. Thus, the compounds of the present disclosure can be effective in inhibiting the function of the HCV NS5A protein and are understood to be as effective in combinations as previously described in application PCT/US2006/022197 and commonly owned WO 04/014852. It should be understood that the compounds of the present disclosure can inhibit multiple genotypes of HCV. […] In one embodiment, compounds of the present disclosure are inhibitory versus 1a, 1b, 2a, 2b, 3a, 4a, and 5a genotypes.

The mark [1] stands for this setting: Hepatitis C virus, class symbol, read-out: EC50 Range against HCV 1b.
The mark [2] stands for this setting: class symbol, read-out: EC50 Range against HCV 1b.

The EC50 is the concentration that produces a half-maximal response.

In the case of `CC(=O)N[C@@H](C(=O)N1[C@H](C(=O)Nc2ccc(-c3cnc(-c4ccc(NC(=O)[C@@H]5C[C@@H]6C[C@@H]6N5C(=O)[C@H](NC(C)=O)c5ccccc5)cc4)o3)cc2)C[C@@H]2C[C@@H]21)c1ccccc1`, the EC50 was 4.57 to 99 nM under setting [1] and < 5 nM (Hepatitis C virus, read-out: EC50 1b).

For the compound `CC(=O)O[C@@H](C(=O)N1CCC[C@H]1C(=O)Nc1ccc(-c2ccc(-c3ccc(NC(=O)[C@@H]4CCCN4C(=O)[C@H](OC(C)=O)c4ccccc4)cc3)o2)cc1)c1ccccc1`, under setting [1], the EC50 was < 4.57 nM.

As to `CC(=O)O[C@H](C(=O)N1CCC[C@H]1C(=O)Nc1ccc(-c2ccc(-c3ccc(NC(=O)[C@@H]4CCCN4C(=O)[C@@H](OC(C)=O)c4ccccc4)cc3)o2)cc1)c1ccccc1`, the concentration for a half-maximal effect (EC50) under setting [1] fell in the range of 100 to 999 nM.

In the case of `CN(C)C(C(=O)N1CCC[C@H]1C(=O)Nc1ccc(-c2cnc(-c3ccc(NC(=O)[C@@H]4CCCN4C(=O)C(c4ccc(F)cc4F)N(C)C)cc3)o2)cc1)c1ccc(F)cc1F` (single isomer, unassigned) [Example D-6], the half-maximal effective concentration (EC50) under setting [2] is < 4.57 nM.

`CN(C)C(C(=O)N1CCC[C@H]1C(=O)Nc1ccc(-c2cnc(-c3ccc(NC(=O)[C@@H]4CCCN4C(=O)C(c4ccc(F)cc4F)N(C)C)cc3)o2)cc1)c1ccc(F)cc1F` (single isomer, unassigned) [Example D-7]: the EC50 under setting [2] was in the range of 4.57 to 99 nM.

Take `O=C(Nc1ccc(-c2ncc(-c3ccc(NC(=O)[C@@H]4CCCN4C(=O)C4CC4)cc3)o2)cc1)C1CCCN1C(=O)C1CC1` (stereo in doubt) [JG-7, (2S,2′S)-N,N′-(1,3-oxazole-2,5-diyldi-4,1-phenylene)bis(1-(cyclopropylcarbonyl)-2-pyrrolidinecarboxamide)]: under setting [1], the EC50 is 100 to 999 nM.

`CC(NC(=O)[C@@H](O)c1ccccc1)C(=O)Nc1ccc(-c2cc(-c3ccc(NC(=O)[C@H](C)NC(=O)[C@@H](O)c4ccccc4)cc3)n[nH]2)cc1` (stereo in doubt) [OL-43, (S)-2-((S)-2-hydroxy-2-phenylacetamido)-N-(4-(5-(4-((R)-2-((S)-2-hydroxy-2-phenylacetamido)propanamido)phenyl)-1H-pyrazol-3-yl)phenyl)propanamide]: the EC50 under setting [1] was in the range of 4.57 to 99 nM.

As to `NC(=O)[C@@H]1C[C@@H]2C[C@@H]2N1C(=O)C1c2ccccc2C=CN1c1ccc(-c2ncc(-c3ccc(NC(=O)[C@@H]4C[C@@H]5C[C@@H]5N4C(=O)c4nccc5ccccc45)cc3)o2)cc1` (stereo partly drawn) [CB-2, (1S,3S,5S,1′S,3′S,5′S)-N,N′-(1,3-oxazole-2,5-diyldi-4,1-phenylene)bis(2-(1-isoquinolinylcarbonyl)-2-azabicyclo[3.1.0]hexane-3-carboxamide)], the EC50 under setting [1] lay within 100 to 999 nM.

`COc1cccc2c1C=C(Cl)N(c1ccc(-c3ncc(-c4ccc(NC(=O)[C@@H]5C[C@@H]6C[C@@H]6N5C(=O)c5nc(Cl)cc6c(OC)cccc56)cc4)o3)cc1)C2C(=O)N1[C@H](C(N)=O)C[C@@H]2C[C@@H]21` (stereo partly drawn) [CB-4, (1S,3S,5S,1′S,3′S,5′S)-N,N′-(1,3-oxazole-2,5-diyldi-4,1-phenylene)bis(2-((3-chloro-5-methoxy-1-isoquinolinyl)carbonyl)-2-azabicyclo[3.1.0]hexane-3-carboxamide)]: the EC50 under setting [1] was in the range of 100 to 999 nM.

`O=C(Nc1ccc(-c2cnc(-c3ccc(NC(=O)C4CC5CC5N4C(=O)C(O)c4ccccc4)cc3)o2)cc1)C1CC2CC2N1C(=O)C(O)c1ccccc1` [CB-5, (1S,3S,5S,1′S,3′S,5′S)-N,N′-(1,3-oxazole-2,5-diyldi-4,1-phenylene)bis(2-((2S)-2-hydroxy-2-phenylacetyl)-2-azabicyclo[3.1.0]hexane-3-carboxamide)]: the EC50 under setting [2] is 4.57 to 99 nM.

With `O=C(Nc1ccc(-c2cnc(-c3ccc(NC(=O)[C@@H]4C[C@@H]5C[C@@H]5N4C(=O)[C@H](O)c4ccccc4)cc3)o2)cc1)[C@@H]1C[C@@H]2C[C@@H]2N1C(=O)[C@H](O)c1ccccc1` [CB-6, (1S,3S,5S,1′S,3′S,5′S)-N,N′-(1,3-oxazole-2,5-diyldi-4,1-phenylene)bis(2-((2R)-2-hydroxy-2-phenylacetyl)-2-azabicyclo[3.1.0]hexane-3-carboxamide)], under setting [2], the EC50 was < 4.57 nM.

With `O=C(Nc1ccc(-c2cnc(-c3ccc(NC(=O)C4CC5CC5N4C(=O)C4CCCO4)cc3)o2)cc1)C1CC2CC2N1C(=O)C1CCCO1` [CB-7, (1S,3S,5S,1′S,3′S,5′S)-N,N′-(1,3-oxazole-2,5-diyldi-4,1-phenylene)bis(2-((2R)-tetrahydro-2-furanylcarbonyl)-2-azabicyclo[3.1.0]hexane-3-carboxamide)], under setting [2], the concentration for a half-maximal effect (EC50) lay in the range of 100 to 999 nM.

On to `CC(O)(C(=O)N1C(C(=O)Nc2ccc(-c3cnc(-c4ccc(NC(=O)C5CC6CC6N5C(=O)C(C)(O)c5ccccc5)cc4)o3)cc2)CC2CC21)c1ccccc1` [CB-8, (1S,3S,5S,1′S,3′S,5′S)-N,N′-(1,3-oxazole-2,5-diyldi-4,1-phenylene)bis(2-((2S)-2-hydroxy-2-phenylpropanoyl)-2-azabicyclo[3.1.0]hexane-3-carboxamide)], for which the EC50 by setting is: under setting [2], < 4.57 nM; (read-out: EC50 1b) < 5 nM.

Take `CN(C)[C@@H](C(=O)N1[C@H](C(=O)Nc2ccc(-c3cnc(-c4ccc(NC(=O)[C@@H]5C[C@@H]6C[C@@H]6N5C(=O)[C@@H](c5ccccc5)N(C)C)cc4)o3)cc2)C[C@@H]2C[C@@H]21)c1ccccc1` [CB-9, (1S,3S,5S,1′S,3′S,5′S)-N,N′-(1,3-oxazole-2,5-diyldi-4,1-phenylene)bis(2-((2R)-2-(dimethylamino)-2-phenylacetyl)-2-azabicyclo[3.1.0]hexane-3-carboxamide)]: the concentration giving a half-maximal response (EC50) under setting [2] was < 4.57 nM.

Consider `CC(O)(C(=O)N1C(C(=O)Nc2ccc(-c3cnc(-c4ccc(NC(=O)C5CC6CC6N5C(=O)C(C)(O)c5ccccc5)cc4)o3)cc2)CC2CC21)c1ccccc1` [CB-10, (1S,3S,5S,1′S,3′S,5′S)-N,N′-(1,3-oxazole-2,5-diyldi-4,1-phenylene)bis(2-((2R)-2-hydroxy-2-phenylpropanoyl)-2-azabicyclo[3.1.0]hexane-3-carboxamide)], for which the EC50 under setting [2] is < 4.57 nM.

For the compound `CC(=O)N1CCC[C@H]1C(=O)Nc1ccc(-c2cnc(-c3ccc(NC(=O)[C@@H]4C=CCN4C(=O)Cc4cccs4)cc3)o2)cc1` [Example D-1, (2S)-N-[4-[5-[4-[[[(2S)-1-acetyl-2-pyrrolidinyl]carbonyl]amino]phenyl]-2-oxazolyl]phenyl]-2,5-dihydro-1-(2-thienylacetyl)-1H-pyrrole-2-carboxamide], under setting [1], the EC50 was in the range of 1000 to 10000 nM.

Regarding `CCc1ccccc1C(=O)N1CC=C[C@H]1C(=O)Nc1ccc(-c2ncc(-c3ccc(NC(=O)[C@@H]4CCCN4C(C)=O)cc3)o2)cc1` [Example D-2, (2S)-N-[4-[5-[4-[[[(2S)-1-acetyl-2-pyrrolidinyl]carbonyl]amino]phenyl]-2-oxazolyl]phenyl]-1-(2-ethylbenzoyl)-2,5-dihydro-1H-pyrrole-2-carboxamide], the half-maximal effective concentration (EC50) under setting [1] lay within 100 to 999 nM.

Take `CC(=O)N1CCC[C@H]1C(=O)Nc1ccc(-c2cnc(-c3ccc(NC(=O)[C@@H]4C=CCN4C(=O)c4ccno4)cc3)o2)cc1` [Example D-3, (2S)-N-[4-[5-[4-[[[(2S)-1-acetyl-2-pyrrolidinyl]carbonyl]amino]phenyl]-2-oxazolyl]phenyl]-2,5-dihydro-1-(5-isoxazolylcarbonyl)-1H-pyrrole-2-carboxamide]: the EC50 under setting [1] lay in the range of 1000 to 10000 nM.

On to `CN(C)C(C(=O)N1CCC[C@H]1C(=O)Nc1ccc(-c2cnc(-c3ccc(NC(=O)[C@@H]4CCCN4C(=O)C(c4ccccc4F)N(C)C)cc3)o2)cc1)c1ccccc1F` (stereo partly drawn) [Example D-4, (2S,2′S)-N,N′-(2,5-oxazolediyldi-4,1-phenylene)bis[1-[(dimethylamino)(2-fluorophenyl)acetyl]-2-pyrrolidinecarboxamide]], for which the EC50 under setting [1] was < 4.57 nM.
